Experimental data published in patent US20240391862A1, “(1,4,5-TRISUBSTITUTED-1H-PYRAZOL-3-YL)OXY-2-ALKOXY ALKYL ACIDS AND THEIR DERIVATIVES, THEIR SALTS AND THEIR USE AS HERBICIDAL AGENTS” (Bayer AKtiengesellschaft, priority 2021, published 2024).

Key:
[1] = system: ABUTH; assay: Post-emergence herbicidal effect, greenhouse pot test; type: in vivo, Abutilon theophrasti; details: Abutilon theophrasti, 504 h, visual rating about 3 weeks after treatment, read-out: Post-emergence effect against ABUTH
Summary of the method: (§1)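 Greenhouse pot test: weeds and crops sown in sandy loam, sprayed post-emergence at one-leaf stage (2–3 weeks after sowing) with WP or EC formulations plus 0.5% additive at 600 l/ha water, rates 20–320 g/ha. Visual rating about 3 weeks later versus untreated controls (100% = dead, 0% = as control).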

[2] = system: ALOMY; assay: as above; type: in vivo, Alopecurus myosuroides; details: Alopecurus myosuroides, 504 h, 320 g/ha, visual rating about 3 weeks after treatment, read-out: Post-emergence effect against ALOMY
Summary of the method: as §1

[3] = system: AMARE; assay: as above; type: in vivo, Amaranthus retroflexus; details: Amaranthus retroflexus, 504 h, visual rating about 3 weeks after treatment, read-out: Post-emergence effect against AMARE
Summary of the method: as §1

[4] = system: AVEFA; assay: as above; type: in vivo, Avena fatua; details: Avena fatua, 504 h, visual rating about 3 weeks after treatment, read-out: Post-emergence effect against AVEFA
Summary of the method: as §1

[5] = system: DIGSA; assay: as above; type: in vivo, Digitaria sanguinalis; details: Digitaria sanguinalis, 504 h, visual rating about 3 weeks after treatment, read-out: Post-emergence effect against DIGSA
Summary of the method: as §1

[6] = system: ECHCG; assay: as above; type: in vivo, Echinochloa crus-galli; details: Echinochloa crus-galli, 504 h; for pest or weed control at 80 g/ha / pest or weed control at 320 g/ha: read-out: Post-emergence effect against ECHCG in %
Summary of the method: as §1

[7] = system: LOLRI; assay: as above; type: in vivo, Lolium rigidum; details: Lolium rigidum, 504 h, read-out: Post-emergence effect against LOLRI in %
Summary of the method: as §1

[8] = system: PHBPU; assay: as above; type: in vivo, Ipomoea purpurea; details: Ipomoea purpurea, 504 h, read-out: Post-emergence effect against PHBPU in %
Summary of the method: as §1

[9] = system: POLCO; assay: as above; type: in vivo, Fallopia convolvulus; details: Fallopia convolvulus, 504 h, read-out: Post-emergence effect against POLCO in %
Summary of the method: as §1

[10] = system: SETVI; assay: as above; type: in vivo, Setaria viridis; details: Setaria viridis, 504 h, read-out: Post-emergence effect against SETVI in %
Summary of the method: as §1

[11] = system: VERPE; assay: as above; type: in vivo, Veronica persica; details: Veronica persica, 504 h, 320 g/ha, read-out: Post-emergence effect against VERPE in %
Summary of the method: as §1

[12] = system: VIOTR; assay: as above; type: in vivo, Viola tricolor; details: Viola tricolor, 504 h, read-out: Post-emergence effect against VIOTR in %
Summary of the method: as §1

[13] = system: KCHSC; assay: as above; type: in vivo; details: 504 h, read-out: Post-emergence effect against KCHSC in %
Summary of the method: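 Greenhouse plants in sandy loam, sprayed post-emergence at the one-leaf stage (2–3 weeks after sowing) with WP or EC formulations in water plus 0.5% additive at 600 l/ha. Rates 20 to 320 g/ha. Activity rated visually after about 3 weeks against untreated controls (0% like control, 100% dead).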

[14] = system: ZEAMX; assay: Post-emergence herbicidal effect and crop plant compatibility, greenhouse pot test; type: in vivo, Zea mays; details: Zea mays, 504 h, one-leaf stage, rated visually after about 3 weeks vs untreated controls
Summary of the method: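 Sandy loam pots, greenhouse. One-leaf stage (2–3 wk after sowing) foliar spray; WP/EC in water + 0.5% additive, 600 l/ha; 20–320 g/ha. Visual score ~3 wk, 0–100% vs untreated.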

Structure (SMILES) | pest or weed control at 80 g/ha [1] [%] | pest or weed control at 320 g/ha [1] [%] | pest or weed control at 320 g/ha [2] [%] | pest or weed control at 80 g/ha [4] [%] | pest or weed control at 320 g/ha [4] [%] | pest or weed control at 320 g/ha [5] [%] | pest or weed control at 80 g/ha [6] [%] | pest or weed control at 320 g/ha [6] [%] | pest or weed control at 320 g/ha [7] [%] | pest or weed control at 80 g/ha [8] [%] | pest or weed control at 320 g/ha [8] [%] | pest or weed control at 80 g/ha [9] [%] | pest or weed control at 320 g/ha [9] [%] | pest or weed control at 320 g/ha [10] [%] | pest or weed control at 320 g/ha [11] [%] | pest or weed control at 80 g/ha [12] [%] | pest or weed control at 320 g/ha [12] [%] | pest or weed control at 80 g/ha [13] [%] | pest or weed control at 320 g/ha [13] [%] | also measured
COC(=O)C(OC)Oc1nn(-c2ncccc2F)c(-c2cncc(F)c2)c1I (centres unmarked) [Example I-72] | 80 | 90 | 90 | 90 | 90 | 90 | 90 | 90 | 90 | 90 | 90 | 80 | 90 | 90 | 90 | 90 | 90 | 90 | 90 | pest or weed control at 20 g/ha ([3]; 20 g/ha): 80%; pest or weed control at 80 g/ha ([3]; 80 g/ha): 80%; pest or weed control at 320 g/ha ([3]; 320 g/ha): 80%; pest or weed control at 80 g/ha ([5]; 80 g/ha): 90%; pest or weed control at 20 g/ha ([6]; 20 g/ha, visual rating about 3 weeks after treatment, read-out: Post-emergence effect against ECHCG): 90%; pest or weed control at 20 g/ha ([8]; 20 g/ha): 80%; pest or weed control at 20 g/ha ([9]; 20 g/ha): 80%; pest or weed control at 20 g/ha ([10]; 20 g/ha): 90%; pest or weed control at 80 g/ha ([10]; 80 g/ha): 90%; pest or weed control at 20 g/ha ([12]; 20 g/ha): 90%; pest or weed control at 20 g/ha ([13]; 20 g/ha): 90%
CCOC(=O)C(OC)Oc1nn(-c2ncccc2F)c(-c2ccc(F)nc2)c1C1CC1 (centres unmarked) [Example I-58] | 80 | 80 | 90 | 80 | 90 | 80 | 90 | 90 | 90 | 80 | 90 | 80 | 80 | 90 | 80 | 80 | 80 | 90 | 90 | plant injury at 20 g/ha ([14]; 20 g/ha, read-out: Post-emergence effect at 20 g/ha against ZEAMX in %): 0%; plant injury at 80 g/ha ([14]; 80 g/ha, read-out: Post-emergence effect at 80 g/ha against ZEAMX in %): 10%; pest or weed control at 20 g/ha ([4]; 20 g/ha): 80%; pest or weed control at 80 g/ha ([7]; 80 g/ha): 90%
